Test results from paper PMC11995230 (ACS Medicinal Chemistry Letters, 2025).
Like-named read-outs stand apart in the source and are kept apart here.

What was measured:
[1] = system: multidrug-resistant clinical isolate H. pylori 2CML; assay: Antimicrobial activity alone and in combination with antibiotics, checkerboard method; assay type: cell-based, Helicobacter pylori; details: for MIC: Helicobacter pylori
Description: Combination of drugs against H. pylori 2CML
A multidrug-resistant clinical isolate H. pylori 2CML from the collection of the Department of Microbiology, Wrocław Medical University)S7 was used to assess the antimicrobial activity of compounds 1 and 4m, in combination with Clarithromycin, Metronidazole, and Levofloxacin (Sigma-Aldrich). The experiments were carried out on flat-bottom 12-well microtiter plates (Bionovo, Legnica, Poland), arranged in a 48-well panel to use the checkboard method.S8 […]
the selected antibiotic were placed in external wells along the x- and y-axes, respectively. The remaining wells contained varying concentrations of both compounds. Each well consisted of 1 mL of Brain Heart Infusion (Oxoid, Le Pont de Claix , France) broth with 5% foetal calf serum (Gibco, Paisley, Scotland, UK) , a bacterial suspension of 10^7 CFU/mL and the desired concentration of the antimicrobial (s) tested. Following the setup, the plates were incubated for 3 days at 37 °C under microaerophilic conditions (GENbox microaer kits, BioMerrieux, Marcy l’Etoile, France), shaking at 100 rpm.
The minimum inhibitory concentration (MIC) was determined as the lowest concentration in which no microbial growth was observed .
The interactions between antimicrobials were interpreted b y calculation of the fractional inhibitory concentration (FIC) index (FICI), defined as FICI = FICA + FICB (FICA = MIC of substance A in combination / MIC of substance A alone, FICB = MIC of substance B in combination / MIC of substance B alone). FICI ≤0.5 was considered as synergism; >0.5 but ≤1 as additivity, while […] as neutral.

[2] = system: H. pylori Tx30a (ATCC 51932) live cells; assay: Whole cell ureolysis assay, cresol red; assay type: cell-based, Helicobacter pylori
Description: (§1) Enzymatic activity assays
Purified urease activity with the addition of the organoselenium compounds studied was measured using cresol red as an indicator of pH changes caused by ammonia produced during ureolysis.S6 The reaction was carried out in 3 mM phosphate buffer containing 30 mM urea, 0.01 % w/v cresol red, purified urease (at a concentration that led to a change in A570 of approximately 1.5 in 90 min) and studied compounds at various concentrations. The reaction was followed by using a TECAN Sunrise spectrometer , and the resulting progress curves were further analyzed to determine the activity and binding mechanism. The rea ction was followed in a system without preincubation of the enzyme with the benzisoselenazolone derivatives (addition of urease initiated the measurement). […]
Whole cell ureolysis assays
To measure the inhibitory activity of the compounds studied against whole cells of ureolytic pathogens, the cresol red reaction was carried out using H. pylori cells that were washed twice with 10 mM PBS and used as a biocatalyst.S6 The reaction mixture contained 10 mM PBS, 10 […]
mM urea, bacterial cells, and urease inhibitors. The results were then used to calculate the IC50 values of the organoselenium compounds against the whole cell ureolysis of H. pylori. […]

[3] = system: Proteus mirabilis pathogenic cells; details: previously reported by the authors; reference number not given; read-out: IC50, ureolysis in Proteus mirabilis pathogenic cells; cited from earlier work
S. pasteurii urease = biological target: T1, S. pasteurii urease (Sporosarcina pasteurii, UniProt P41020); assay: Purified S. pasteurii urease inhibition, cresol red assay, no preincubation; assay type: biochemical, Sporosarcina pasteurii CCM 2056; details: native purified urease, slow-binding, read-out: K i, S. pasteurii urease
T1 construct: The native urease, purified from S. pasteurii CCM 2056; made in house; host or cells: Sporosarcina pasteurii CCM 2056 (native, endogenous enzyme, not recombinant)
T1 sequence (P41020 whole entry): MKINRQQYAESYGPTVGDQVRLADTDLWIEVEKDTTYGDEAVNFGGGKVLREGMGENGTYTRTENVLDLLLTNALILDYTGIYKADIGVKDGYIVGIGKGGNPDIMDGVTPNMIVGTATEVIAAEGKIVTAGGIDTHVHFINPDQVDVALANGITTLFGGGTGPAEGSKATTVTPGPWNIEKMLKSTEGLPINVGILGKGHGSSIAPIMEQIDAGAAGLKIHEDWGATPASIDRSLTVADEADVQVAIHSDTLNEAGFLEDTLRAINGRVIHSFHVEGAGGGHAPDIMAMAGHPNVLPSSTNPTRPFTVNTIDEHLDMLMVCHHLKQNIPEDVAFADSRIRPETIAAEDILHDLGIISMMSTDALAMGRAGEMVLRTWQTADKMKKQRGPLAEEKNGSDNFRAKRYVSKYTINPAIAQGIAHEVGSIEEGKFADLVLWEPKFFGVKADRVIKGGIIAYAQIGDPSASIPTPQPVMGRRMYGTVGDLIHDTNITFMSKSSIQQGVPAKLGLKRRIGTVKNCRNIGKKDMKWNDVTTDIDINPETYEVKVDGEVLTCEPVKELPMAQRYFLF
T1 sequence (P41022 whole entry, further chain): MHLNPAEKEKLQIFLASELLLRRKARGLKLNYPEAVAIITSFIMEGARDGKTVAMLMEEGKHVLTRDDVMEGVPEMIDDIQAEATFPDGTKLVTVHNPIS
T1 sequence (P41021 whole entry, further chain): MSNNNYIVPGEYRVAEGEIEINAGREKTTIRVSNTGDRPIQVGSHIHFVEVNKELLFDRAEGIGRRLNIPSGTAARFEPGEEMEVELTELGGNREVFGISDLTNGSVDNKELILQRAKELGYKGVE
Description: compounds. Helicobacter pylori 2CLM belongs to the collection of the Department of Microbiology, Wrocław Medical University, Poland.
Purification of S. pasteurii urease
The native urease from the cells of S. pasteurii was induced and purified in a five-step chromatographic procedure, as previously described.S5 The protein concentration was […]
as §1
Purified urease activity with the addition of the organoselenium compounds studied was measured using cresol red as an indicator of pH changes caused by ammonia produced during ureolysis.S6 The reaction was carried out in 3 mM phosphate buffer containing 30 mM urea, 0.01 % w/v cresol red, purified urease (at a concentration that led to a change in A570 of approximately 1.5 in 90 min) and studied compounds at various concentrations. The reaction was followed by using a TECAN Sunrise spectrometer , and the resulting progress curves were further analyzed to determine the activity and binding mechanism. The rea ction was followed in a system without preincubation of the enzyme with the benzisoselenazolone derivatives (addition of urease initiated the measurement).
The progress curves were fitted to the following equation to calculate the apparent reaction rate constants ( kapp):
P = v ∗ t + 0 s ∗ (1 − e−kapp∗t)
P – product concentration; t – time; v0 – initial state velocity; vs – steady state velocity.
The kapp values were then plotted against the inhibitor concentration [I], and the resulting linear function was used to calculate the dissociation […] of the EI complex (Ki): […]

[4] = 72 h, H. pylori 2CML, single agent, read-out: MIC Alone
[5] = H. pylori 2CML, single agent, read-out: MIC Alone
[6] = pair Ebselen + Clarithromycin, H. pylori 2CML
[7] = pair Ebselen + Levofloxacin, H. pylori 2CML
[8] = pair Ebselen + Metronidazole, H. pylori 2CML
[9] = Helicobacter pylori, ATCC51932, read-out: IC50, H. pylori whole-cell ureolysis, live cells of H. pylori Tx30a
[10] = pair 4m + Clarithromycin, H. pylori 2CML
[11] = pair 4m + Levofloxacin, H. pylori 2CML
[12] = pair 4m + Metronidazole, H. pylori 2CML
[13] = read-out: IC50, H. pylori whole-cell ureolysis, live cells of H. pylori Tx30a

Molecule: O=c1c2ccccc2[se]n1-c1ccccc1 [compound 1, N-phenyl-1,2-benzisoselenazol-3(2H)-one]
- MIC [1, 4]: 0.857 µg/mL
- MIC [1, 5]: 0.857 µg/mL
- MIC ([1]; H. pylori 2CML, single agent, read-out: MIC alone): 3.12 µM
- FIC ([1]; pair Ebselen + Clarithromycin): 0.5
- FICI ([1]; pair Ebselen + Clarithromycin): 1
- Interpretation ([1]; pair Ebselen + Clarithromycin): Additive (>0.5 but ≤1 as additivity)
- MIC Combination [1, 6]: 0.429 µg/mL
- FIC ([1]; pair Ebselen + Levofloxacin): 0.5
- FICI ([1]; pair Ebselen + Levofloxacin): 1
- Interpretation ([1]; pair Ebselen + Levofloxacin): Additive (>0.5 but ≤1 as additivity)
- MIC Combination [1, 7]: 0.429 µg/mL
- FIC ([1]; pair Ebselen + Metronidazole): 0.5
- FICI ([1]; pair Ebselen + Metronidazole): 1
- Interpretation ([1]; pair Ebselen + Metronidazole): Additive (>0.5 but ≤1 as additivity)
- MIC Combination [1, 8]: 0.429 µg/mL
- IC50 [2, 9]: 742 ± 41 nM
- IC50 [3]: 29.2 ± 3.1 nM

Molecule: O=c1c2ccccc2[se]n1Cc1cc(Cl)ccc1Cl [4h]
- Ki (S. pasteurii urease): 9.04 ± 0.22 nM
- IC50 [2, 9]: 341 ± 23 nM

Molecule: O=c1c2ccccc2[se]n1Cc1ccc(C(F)(F)F)c(F)c1 [4m]
- MIC ([1]; 72 h, read-out: MIC Alone): 1.17 µg/mL
- MIC ([1]; read-out: MIC Alone): 1.17 µg/mL
- MIC ([1]; read-out: MIC alone): 3.12 µM
- FIC ([1]; pair 4m + Clarithromycin): 0.0625
- FICI ([1]; pair 4m + Clarithromycin): 0.562
- Interpretation ([1]; pair 4m + Clarithromycin): Additive (>0.5 but ≤1 as additivity)
- MIC Combination [1, 10]: 0.0731 µg/mL
- MIC in combination [1, 10]: 0.2 µM
- FIC ([1]; pair 4m + Levofloxacin): 0.5
- FICI ([1]; pair 4m + Levofloxacin): 1
- Fold change of MIC (reduction) ([1]; pair 4m + Levofloxacin): ×2↓
- Interpretation ([1]; pair 4m + Levofloxacin): Additive (>0.5 but ≤1 as additivity)
- MIC Combination [1, 11]: 0.585 µg/mL
- FIC ([1]; pair 4m + Metronidazole): 0.125
- FICI ([1]; pair 4m + Metronidazole): 0.625
- Interpretation ([1]; pair 4m + Metronidazole): Additive (>0.5 but ≤1 as additivity)
- MIC Combination [1, 12]: 0.146 µg/mL
- Ki (S. pasteurii urease): 15.9 ± 1.9 nM
- IC50 [2, 9]: < 100 nM
- IC50 [2, 13]: 93.5 ± 5.3 nM

Molecule: O=c1c2ccccc2[se]n1Cc1ccc(C(F)(F)F)cc1 [4e]
- Ki (S. pasteurii urease): 2.1 ± 0.19 nM
- IC50 [2, 9]: 170 ± 1.6 nM

Molecule: O=c1c2ccccc2[se]n1Cc1ccc(F)c(C(F)(F)F)c1 [4o]
- Ki (S. pasteurii urease): 2.99 ± 0.088 nM
- IC50 [2, 9]: 107 ± 1.9 nM

Molecule: O=c1c2ccccc2[se]n1Cc1cccc(F)c1 [4b]
- Ki (S. pasteurii urease): 12.2 ± 0.4 nM
- IC50 [2, 9]: 154 ± 8.4 nM

Molecule: N-(4-chloro-2-fluorophenyl)-1,2-benzisoselenazol-3(2H)-one [compound 2, reference compound]
- IC50 ([2]; live cells of H. pylori Tx30a, read-out: IC50, H. pylori whole-cell ureolysis): 337 nM

Molecule: O=c1c2ccccc2[se]n1Cc1ccc(F)c(F)c1 [4l]
- Ki (S. pasteurii urease): 3.35 ± 0.65 nM
- IC50 [2, 9]: 110 ± 4.5 nM

Molecule: O=c1c2ccccc2[se]n1Cc1ccc(Cl)c(C(F)(F)F)c1 [4n]
- Ki (S. pasteurii urease): 18.6 ± 0.37 nM
- IC50 [2, 9]: 153 ± 5.4 nM

Molecule: O=c1c2ccccc2[se]n1Cc1ccccc1F [4a]
- Ki (S. pasteurii urease): 3.61 ± 0.28 nM
- IC50 [2, 9]: 171 ± 5.4 nM

Molecule: O=c1c2ccccc2[se]n1Cc1ccc(Cl)c(Cl)c1 [4k]
- Ki (S. pasteurii urease): 15.9 ± 0.65 nM
- IC50 [2, 9]: 315 ± 4.7 nM

Molecule: O=c1c2ccccc2[se]n1Cc1cc(F)cc(F)c1 [4p]
- Ki (S. pasteurii urease): 1.3 ± 0.027 nM
- IC50 [2, 9]: 122 ± 4.1 nM

Molecule: O=c1c2ccccc2[se]n1Cc1ccc(F)c(F)c1F [4r]
- Ki (S. pasteurii urease): 2.94 ± 0.26 nM
- IC50 [2, 9]: 179 ± 3.3 nM

Molecule: Cc1ncc([N+](=O)[O-])n1CCO [Metronidazole]
- MIC [1, 4]: 64 µg/mL
- MIC [1, 5]: 64 µg/mL
- FIC ([1]; pair 4m + Metronidazole): 0.5
- Fold change of MIC (reduction) ([1]; pair 4m + Metronidazole): ×2↓
- MIC Combination [1, 12]: 32 µg/mL
- FIC ([1]; pair Ebselen + Metronidazole): 0.5
- Fold change of MIC (reduction) ([1]; pair Ebselen + Metronidazole): ×2↓
- MIC Combination [1, 8]: 32 µg/mL

Molecule: O=c1c2ccccc2[se]n1Cc1ccccc1 [compound 3]
- IC50 ([2]; Helicobacter pylori, ATCC51932, live cells of H. pylori Tx30a, read-out: IC50, H. pylori whole-cell ureolysis): 151 ± 5.7 nM

Molecule: O=c1c2ccccc2[se]n1Cc1ccc(Cl)cc1Cl [4f]
- Ki (S. pasteurii urease): 0.594 ± 0.032 nM
- IC50 [2, 9]: 345 ± 16 nM

Molecule: C[C@H]1COc2c(N3CCN(C)CC3)c(F)cc3c(=O)c(C(=O)O)cn1c23 [Levofloxacin]
- MIC [1, 4]: 16 µg/mL
- MIC [1, 5]: 16 µg/mL
- FIC ([1]; pair 4m + Levofloxacin): 0.5
- Fold change of MIC (reduction) ([1]; pair 4m + Levofloxacin): ×2↓
- MIC Combination [1, 11]: 8 µg/mL
- FIC ([1]; pair Ebselen + Levofloxacin): 0.5
- Fold change of MIC (reduction) ([1]; pair Ebselen + Levofloxacin): ×2↓
- MIC Combination [1, 7]: 8 µg/mL

Molecule: CC[C@H]1OC(=O)[C@H](C)[C@@H](O[C@H]2C[C@@](C)(OC)[C@@H](O)[C@H](C)O2)[C@H](C)[C@@H](O[C@@H]2O[C@H](C)C[C@H](N(C)C)[C@H]2O)[C@](C)(OC)C[C@@H](C)C(=O)[C@H](C)[C@@H](O)[C@]1(C)O [Clarithromycin]
- MIC [1, 4]: 16 µg/mL
- MIC [1, 5]: 16 µg/mL
- FIC ([1]; pair 4m + Clarithromycin): 0.5
- Fold change of MIC (reduction) ([1]; pair 4m + Clarithromycin): ×2↓
- MIC Combination [1, 10]: 8 µg/mL
- FIC ([1]; pair Ebselen + Clarithromycin): 0.5
- Fold change of MIC (reduction) ([1]; pair Ebselen + Clarithromycin): ×2↓
- MIC Combination [1, 6]: 8 µg/mL

Molecule: O=c1c2ccccc2[se]n1Cc1ccc(F)cc1 [4d]
- Ki (S. pasteurii urease): 25.4 ± 2.8 nM
- IC50 [2, 9]: 193 ± 8.1 nM

Molecule: O=c1c2ccccc2[se]n1Cc1cc(F)ccc1Cl [4i]
- Ki (S. pasteurii urease): 0.543 ± 0.015 nM
- IC50 [2, 9]: < 100 nM
- IC50 [2, 13]: 96.4 ± 1.7 nM

Molecule: O=c1c2ccccc2[se]n1Cc1cccc(C(F)(F)F)c1 [4c]
- Ki (S. pasteurii urease): 2.5 ± 0.24 nM
- IC50 [2, 9]: 112 ± 2.4 nM

Molecule: O=c1c2ccccc2[se]n1Cc1c(F)cccc1F [4j]
- Ki (S. pasteurii urease): 1.16 ± 0.14 nM
- IC50 [2, 9]: 218 ± 14 nM

Molecule: O=c1c2ccccc2[se]n1Cc1ccc(F)cc1F [4g]
- Ki (S. pasteurii urease): 2.52 ± 0.19 nM
- IC50 [2, 9]: 287 ± 18 nM

Molecule: O=c1c2ccccc2[se]n1Cc1cc(C(F)(F)F)cc(C(F)(F)F)c1 [4q]
- Ki (S. pasteurii urease): 3.32 ± 0.29 nM
- IC50 [2, 9]: 208 ± 4.5 nM
